{"source": "patent US11033531B2", "about": "“Use of carbamate compound for preventing, alleviating, or treating tremors or tremor syndrome” (SK BIOPHARMACEUTICALS CO., LTD., priority 2016, dated 2021)", "system": "oxotremorine-induced tremor in rats", "assay": "Oxotremorine-induced tremor in rats", "type": "in vivo, rat", "conditions": "for Number of tremor behaviors: male SD rats, behaviors of at least 0.5 s in 2,048 s, mean±SEM", "text": "As a model for assessing the potential efficacy of therapeutic agents that can effectively treat essential tremor and other tremor syndromes, oxotremorine-induced tremor in rats was used [B Cox, D Potkonjak, Effects of drugs on tremor and increase in brain acetylcholine produced by oxotremorine in the rat, Br. J. Pharmac., 1970, 38, 171-180].\nMale SD rats (CrjBgi:CD(SD)IGS) were purchased from Orient Bio, Inc. of Korea, and placed in a wire mesh cage under conditions of ambient temperature of 20 to 24° C., 55 to 75% relative humidity, an automatically controlled light-and-darkness cycle of 12 hours and free access to feed (purchased from Agri Brands Purina Korea, Inc.) and water. The rats were housed and maintained in accordance with the Laboratory Animal Care Standards of the Institutional Animal Care and Use Committee (IACUC). After about one week of stabilization, rats weighing 200 to 240 g were used in the experiment. The rats to be used for the experiment were fasted by removing the feed 16 hours before the experiment, and placed in a tremor measurement device (Tremor Monitor™, San Diego Instruments, CA) 3 hours before the experiment and adapted for 10 minutes.\nThe test compound was prepared by dissolving it in 30% polyethylene glycol 400 (purchased from Sigma) used as a vehicle 30-45 minutes before each experiment. The vehicle and the test compound (3, 10 and 30 mg/kg dose) were administered into the oral cavity, respectively, in a volume of 4 ml per 1 kg body weight of the rat. After 60 minutes, oxotremorine (oxotremorine sesquifumarate salt, 1-(4-[1-Pyrrolidinyl]-2-butynyl)-2-pyrrolidinone sesquifumarate; purchased from Sigma) dissolved in saline and prepared in a volume of […] or a saline were subcutaneously injected into the back of the rat neck in a volume of 2 ml per 1 kg body weight of the rat. Oxotremorine-administered rats were immediately placed in a tremor measurement device (filter frequency 12 Hz, band-width 6 Hz, filter number 2), and the number of tremor behaviors that progressed for at least 0.5 seconds in 2,048 seconds were automatically measured and recorded. The number of rats per group was 16.\nAll data were expressed as mean±SEM. The number of oxotremorine-induced tremor behaviors in the group treated with the test compound was expressed as % inhibition compared to the vehicle group. Statistical analysis of the number of tremor behaviors between groups was performed using one-way ANOVA (one-way analysis of variance) and Dunnett's multiple comparison test by using the GraphPad Prism ver. 4.0 program. The mean number of tremor behaviors in the vehicle/oxotremorine group was observed as 29.8±8.1, and the mean number of tremor behaviors in the vehicle/saline group was observed as 9.2±2.5.", "note": "Marks after values point to notes of the source that are not given here."}
{"smiles": "NC(=O)O[C@@H](Cn1ncnn1)c1ccccc1Cl", "note": "[Test compound]", "values": [{"measurement": "ED50", "setting": "Rattus norvegicus, po, rats, inhibition of oxotremorine-induced tremor behaviors, read-out: Calculated Median Effective Dose (ED50)", "result": 1.67, "unit": "mg/kg"}, {"measurement": "inhibition at 3 mg/kg", "setting": "Rattus norvegicus, po, 3 mg/kg p.o., rats, vs vehicle/oxotremorine group, corrected for vehicle/saline group, read-out: Inhibition rate compared to negative group", "result": 50.3, "unit": "%"}, {"measurement": "inhibition at 10 mg/kg", "setting": "Rattus norvegicus, po, 10 mg/kg p.o., rats, vs vehicle/oxotremorine group, corrected for vehicle/saline group, read-out: Inhibition rate compared to negative group", "result": 78.7, "unit": "%"}, {"measurement": "inhibition at 30 mg/kg", "setting": "Rattus norvegicus, po, 30 mg/kg p.o., rats, vs vehicle/oxotremorine group, corrected for vehicle/saline group, read-out: Inhibition rate compared to negative group", "result": 130, "unit": "%"}, {"measurement": "Number of tremor behaviors", "setting": "3 mg/kg p.o. 60 min before oxotremorine s.c.", "result": "19.4 ± 3.7"}, {"measurement": "Number of tremor behaviors", "setting": "10 mg/kg p.o. 60 min before oxotremorine s.c.", "result": "13.6 ± 0.1^2)"}, {"measurement": "Number of tremor behaviors", "setting": "30 mg/kg p.o. 60 min before oxotremorine s.c.", "result": "2.9 ± 0.5^1)"}, {"measurement": "Pharmacological activity in the oxotremorine-induced tremor behavior model", "setting": "rats, 3, 10 and 30 mg/kg p.o.", "result": "significant pharmacological activity"}]}
